Results taken from EP1496060B1, “Antitumoral analogs of ET-743” (PHARMA MAR, S.A., priority 2000, dated 2001).

Legend:
HT-29 = test: Cytotoxic activity, IC50, HT-29; format: cell-based; conditions: Homo sapiens
A-549 = test: Cytotoxic activity, IC50, A-549; format: cell-based; conditions: Homo sapiens, A549
DU-145 = test: Cytotoxic activity, IC50, DU-145; format: cell-based; conditions: Homo sapiens
P-388 = test: Cytotoxic activity, IC50, P-388; format: cell-based; conditions: Mus musculus, P388
MEL-28 = test: Cytotoxic activity, IC50, MEL-28; format: cell-based; conditions: Homo sapiens, SK-MEL-28
RAMOS = conditions: ramos cells

| SMILES | IC50 (HT-29) [µM] | IC50 (A-549) [µM] | IC50 (DU-145) [µM] | IC50 (P-388) [µM] | IC50 (MEL-28) [µM] | IC50 (RAMOS) [nM] |
| --- | --- | --- | --- | --- | --- | --- |
| C/C=C/C(=O)NC[C@H]1c2c(c(OC(C)=O)c(C)c3c2OCO3)C[C@H]2[C@H]3c4c(cc(C)c(OC)c4O)C[C@@H]([C@H](C#N)N12)N3C | 0.0001 | 0.0008 | 0.0008 |  |  |  |
| COc1c(C)cc2c(c1O)[C@@H]1[C@@H]3Cc4c(OC(C)=O)c(C)c5c(c4[C@H](CNC(=O)CCc4ccccc4)N3[C@@H](O)[C@H](C2)N1C)OCO5 | 0.0001 |  | 0.0001 |  |  |  |
| COc1c(C)cc2c(c1O)[C@@H]1[C@@H]3Cc4c(OC(C)=O)c(C)c5c(c4[C@H](CNC(=O)Cc4ccccc4)N3[C@@H](O)[C@H](C2)N1C)OCO5 | 0.0007 | 0.0007 | 0.0007 | 0.0007 | 0.0007 |  |
| COCOc1c(OC)c(C)cc2c1C1C3Cc4c(OC(C)=O)c(C)c5c(c4C(COC(=O)C=Cc4ccccc4)N3C(C#N)C(C2)N1C)OCO5 (centres unmarked) | 0.07 | 0.07 | 0.07 |  | 0.07 |  |
| CCCC(=O)OCC1c2c(c(OC(C)=O)c(C)c3c2OCO3)CC2C3c4c(cc(C)c(OC)c4O)CC(C(C#N)N12)N3C (centres unmarked) | 0.0008 | 0.0008 | 0.0008 |  |  |  |
| COc1c(C)cc2c(c1O)C1C3Cc4c(OC(C)=O)c(C)c5c(c4C(COC(=O)CCc4ccccc4)N3C(C#N)C(C2)N1C)OCO5 (centres unmarked) | 0.0001 |  | 0.0001 |  |  |  |
| COc1c(C)cc2c(c1O)C1C3Cc4c(OC(C)=O)c(C)c5c(c4C(COC(=O)C=Cc4ccccc4)N3C(C#N)C(C2)N1C)OCO5 (centres unmarked) | 0.0007 | 0.0007 | 0.0007 | 0.0007 | 0.0007 |  |
| CCCC(=O)OCC1c2c(c(OC(C)=O)c(C)c3c2OCO3)CC2C3c4c(cc(C)c(OC)c4O)CC(C(O)N12)N3C (centres unmarked) | 0.0001 |  | 0.0001 |  |  |  |
| COc1c(C)cc2c(c1O)C1C3Cc4c(OC(C)=O)c(C)c5c(c4C(COC(=O)C=Cc4cccc(C(F)(F)F)c4)N3C(O)C(C2)N1C)OCO5 (centres unmarked) | 0.0001 |  | 0.0001 |  |  |  |
| COc1c(C)cc2c(c1O)C1C3Cc4c(OC(C)=O)c(C)c5c(c4C(COC(=O)CCc4ccccc4)N3C(O)C(C2)N1C)OCO5 (centres unmarked) | 0.0001 |  | 0.0001 |  |  |  |
| COc1c(C)cc2c(c1O)C1C3Cc4c(OC(C)=O)c(C)c5c(c4C(COC(=O)C=Cc4ccccc4)N3C(O)C(C2)N1C)OCO5 (centres unmarked) | 0.0007 | 0.0007 | 0.0007 |  | 0.0007 |  |
| COc1c(C)cc2c(c1O)C1C3Cc4c(OC(C)=O)c(C)c5c(c4C(CNC(=O)C(CCCNC(=N)N)NC(=O)OC(C)(C)C)N3C(C#N)C(C2)N1C)OCO5 (centres unmarked) | > 1 | > 1 |  |  |  |  |
| COc1c(C)cc2c(c1O)C1C3Cc4c(OC(C)=O)c(C)c5c(c4C(CNC(=O)C(Cc4c[nH]c6ccccc46)NC(=O)OC(C)(C)C)N3C(O)C(C2)N1C)OCO5 (centres unmarked) | 0.012 |  |  |  |  |  |
| COc1c(C)cc2c(c1O)C1C3Cc4c(OC(C)=O)c(C)c5c(c4C(CNC(=O)c4cccnc4Cl)N3C(C#N)C(C2)N1C)OCO5 (centres unmarked) | 0.00015 |  |  |  |  |  |
| COc1c(C)cc2c(c1O)C1C3Cc4c(OC(C)=O)c(C)c5c(c4C(CNC(=O)c4cccnc4Cl)N3C(O)C(C2)N1C)OCO5 (centres unmarked) | 0.00015 |  |  |  |  |  |
| COc1c(C)cc2c(c1O)C1C3Cc4c(OC(C)=O)c(C)c5c(c4C(CNC(=O)CC4CCCCC4)N3C(C#N)C(C2)N1C)OCO5 (centres unmarked) | 0.0015 |  |  |  |  |  |
| COc1c(C)cc2c(c1OC(=O)CC1CCCCC1)C1C3Cc4c(OC(C)=O)c(C)c5c(c4C(CNC(=O)CC4CCCCC4)N3C(C#N)C(C2)N1C)OCO5 (centres unmarked) | 0.013 |  |  |  |  |  |
| COc1c(C)cc2c(c1O)C1C3Cc4c(OC(C)=O)c(C)c5c(c4C(CNC(=O)CCC4CCCCC4)N3C(C#N)C(C2)N1C)OCO5 (centres unmarked) | 0.0015 |  |  |  |  |  |
| COc1c(C)cc2c(c1OC(=O)CCC1CCCCC1)C1C3Cc4c(OC(C)=O)c(C)c5c(c4C(CNC(=O)CCC4CCCCC4)N3C(C#N)C(C2)N1C)OCO5 (centres unmarked) | 0.12 |  |  |  |  |  |
| COc1c(C)cc2c(c1O)[C@@H]1[C@@H]3Cc4c(OC(C)=O)c(C)c5c(c4[C@H](COC(=O)CCc4ccccc4)N3[C@@H](O)[C@H](C2)N1C)OCO5 |  |  |  |  |  | 1.86 |
